“Also recorded” adds a separate entry of the source.
Tests used:
[1] = test system: mutant pool (Asp41Asn, Glu62Asp, Thr201A and Trp224His Ep mutants); assay: Conversion of sugar phosphates by pooled Ep mutants (FIG. 11); assay type: biochemical, Salmonella enterica LT2; conditions: 60 μg of each mutant
Experimental: (§1) FIG. 11. Percent conversion of sugar phosphates according to the present invention by wild-type and mutant enzymes. The alterations from native substrate (Glc-1-P,1) are highlighted in red. For the mutant pool, mutants Asp41Asn, Glu62Asp, Thr201A and Trp224His were pooled, concentrated and an aliquote constituting 60 μg of each mutant (corresponding to 3.5U Ep) was utilized for the assay.
As a rapid means to assay the entire pool of the four newly constructed mutants, the mutants were combined and the mixture directly tested for ability to convert compounds (2), (108), (89), (102), (38), and (127). […] Those substrates turned over include […] and (127), the two sugar phosphates not accepted or poorly accepted by wild-type Ep.
(§2) Assays for product formation and steady state kinetics were accomplished using conditions similar to those described. in Jiang, J., Biggins, J. B. & Thorson, J. S. A General Enzymatic Method for the Synthesis of Natural and “Unnatural” UDP- and TDP-Nucleotide Sugars. J. Am. Chem. Soc. 122, 6803-6804 (2000). For the mutant pool assays, an aliquot which contained an eqimolar ratio of each mutant (60 μg) was utilized.

[2] = target: T1, Salmonella enterica LT2 α-D-glucopyranosyl phosphate thymidylyltransferase (Ep) (Salmonella typhimurium, UniProt P26393); assay: Ep-catalyzed conversion of aminodeoxy/acetamidodeoxy sugar phosphates with inorganic pyrophosphatase, HPLC (FIG. 4); assay type: biochemical; conditions: for product formation with dTTP / product formation with UTP: 2.5 mM NTP, 5.0 mM sugar phosphate, 10 U inorganic pyrophosphatase, 30 min, 37° C.
T1 construct: made in house; host or cells: E. coli (E. coli-prfbA-C)
Experimental: To evaluate the synthetic utility of thymidylyl-transferase, purified Ep, α-D-glucopyranosyl phosphate, Mg^+2, NTP and inorganic pyrophosphatase were incubated at 37° C. for 30 min and the extent of product formation determined by HPLC. The inorganic pyrophosphatase was included to drive the reaction forward. A reaction containing 2.5 mM NTP, 5.0 mM sugar phosphate, 5.5 mM MgCl2 and 10 U inorganic pyrophosphatase in a total volume of 50 μL 50 mM potassium phosphate buffer, pH 7.5 at 37° C. was initiated by the addition of 3.52 U Ep (1 U=the amount of protein needed to produce […] TDP-D-glucose min^−1). The reaction was incubated with slow agitation for 30 min at 37° C., quenched with MeOH (50 μL), centrifuged (5 min, 14,000×g) and the supernatant was stored at −20° C. until analysis by HPLC. Samples (30 μL) were resolved on a Sphereclone 5u SAX column (150×4.6 mm) fitted with a SecurityGuard ™ cartridge (Phenomenex; Torrance, Calif.) using a linear gradient (50–200 mM potassium phosphate buffer, pH 5.0, 1.5 mL min^−1, A275 nm).
The results of these assays are illustrated in FIG. 4. For each assay, confirmation of product formation was based upon high resolution mass spectroscopy of HPLC-isolated products and, also in some cases, HPLC co-elution with commercially available standards.
A reaction containing 2.5 mM NTP, 5.0 mM sugar phosphate, 5.5 mM MgCl2 and 10 U inorganic pyrophosphatase in a total volume of 50 μL 50 mM potassium phosphate buffer, pH 7.5 at 37° C. was initiated by the addition of 3.52 U Ep (1 U=the amount of protein needed to produce 1 μmol TDP-α-D-glucose min^−1) The reaction was incubated with slow agitation for 30 min at 37° C., quenched with MeOH (50 μL), centrifuged (5 min, 14,000×g) and the supernatant was stored at −20° C. until analysis by HPLC. Samples (30 μL) were resolved on a Sphereclone 5u SAX column (250×4.6 mm) fitted with a guard column (30×4.6 mm) using a linear gradient (50–200 mM potassium phosphate buffer, pH 5.0, 1.5 mL min^−1, A275 nm).

wild-type Ep = target: T2, wild-type Ep (Salmonella typhimurium, UniProt P26393); assay: Conversion of sugar phosphates by wild-type enzyme (FIG. 11); assay type: biochemical, Salmonella enterica LT2
T2 construct: made in house; host or cells: E. coli (E. coli-prfbA-C)
Experimental: as §1
Percent conversion was determined as described in Jiang, J., Biggins, J. B. & Thorson, J. S. A General Enzymatic Method for the Synthesis of Natural and “Unnatural” UDP- and TDP-Nucleotide Sugars. J. Am. Chem. Soc. 122, 6803–6804 (2000).
as §2

Ep Trp224His mutant = target: T3, Ep Trp224His mutant (Salmonella typhimurium, UniProt P26393, W224H); assay: Individual mutant analysis: Trp224His; assay type: biochemical, Salmonella enterica LT2; conditions: deconvolution of the mutant pool
T3 construct: made in house
Description: (§3) Thr102Ala, on the other hand, was responsible for the 2-fold increase in the conversion of (108). […] Yet, cumulatively, this small set of directed mutants was able to successfully turn over three of four targeted “unnatural” substrates. […] This Ep variant will serve as an excellent foundation for second generation double mutants.
as §2

[3] = target: T1, Salmonella enterica LT2 α-D-glucopyranosyl phosphate thymidylyltransferase (Ep); assay: Ep-catalyzed conversion of α-D-hexopyranosyl phosphates and NTP to NDP-sugars, HPLC (FIG. 2); assay type: biochemical; conditions: 5 mM NTP, 10 mM sugar phosphate, 30 min, 37° C.
Description: FIG. 2. E^p-Catalyzed Conversion of Substrates wherein superscript indicators (a)–(h) are as follows: (a) Percent conversion=[Ap/(AP+AT)]×100, where AP is the NDP-sugar product peak integration and AT represents the NTP peak integration. HRMS for all observed products reported in the supporting information. (b) Standard retention times: TDP, […]; TTP, 7.2 mm; UDP, 4.0 mm; UTP, 6.1 mm. (c) Commercially available. (d) Coelutes with commercially available standard. […] (f) Adjusted for the 2:1 α/β-28. (g) In contrast to previously published studies (See Lindquist, L; Kaiser, R.; Reeves, P. R.; Lindberg, A. A., Eur J. Biochem, 1993, 211, 763–770). (h) No products observed.
To evaluate the synthetic utility of purified thymidylyltransferase, Ep, α-D-hexopyranosyl phosphate, Mg^+2 and NTP were incubated at about 37° C. for about 30 min and the extent of product formation determined by HPLC. The results of these assays are illustrated in FIG. 2. Confirmation of product formation was based upon HPLC co-elution with commercially available standards and/or HPLC isolation and high resolution mass spectroscopy of the product. […] A reaction containing 5 mM NTP, 10 mM sugar phosphate and 5.5 mM MgCl2 in a total volume of 50 μL 50 mM potassium phosphate buffer, pH 7.5 at 37° C. was initiated by the addition of 3.52 U Ep (1 U=the amount of protein needed to produce 1 μmol TDP-D-glucose min^−1). The reaction was incubated with slow agitation for 30 min at 37° C., quenched with MeOH (50 μL), centrifuged (5 min, 14,000×g) and the supernatant was stored at −20° C. until analysis by HPLC. Samples (20 μL) were resolved on a Sphereclone 5 u SAX column (250×4.6 mm) fitted with a guard column (30×4.6 mm) using a linear gradient (20–60 mM potassium phosphate buffer, pH 5.0, 1.5 mL min^−1, A275 nm).

[4] = target: T1, Salmonella enterica LT2 α-D-glucopyranosyl phosphate thymidylyltransferase (Ep); assay type: biochemical; conditions: secondary plot of Lineweaver-Burke plots, assays in triplicate
Description: FIG. 10. […] The conditions for the Ep assay conditions and HPLC resolution of reactants and products were similar to those described in Jiang, J., Biggins, J. B. & Thorson, J. S. A General Enzymatic Method for the Synthesis of Natural and “Unnatural” UDP- and TDP-Nucleotide Sugars. J. Am. Chem. Soc. 122, 6803–6804 (2000).
as §2

Ep Thr102Ala mutant = target: T4, Ep Thr102Ala mutant (Salmonella typhimurium, UniProt P26393, T201A); assay: Individual mutant analysis: Thr102Ala; assay type: biochemical, Salmonella enterica LT2; conditions: over wild-type Ep
T4 construct: made in house
Description: as §3, §2

CC(=O)NC[C@H]1O[C@H](OP(=O)([O-])[O-])[C@H](O)[C@@H](O)[C@@H]1O.[Na+].[Na+] [compound 86, Disodium-(6-acetamido-6-deoxy-α-D-glucopyranosyl) Phosphate]
turnover by the mutant pool [1]: turned over | product formation with dTTP [2]: less activity | increase of product formation with UTP in comparison to dTTP ([2]; FIG. 4): 8 fold | acceptance / conversion by wild-type Ep (wild-type Ep): not well-accepted | conversion by Trp224His mutant (Ep Trp224His mutant): responsible for converting

NC[C@H]1O[C@H](OP(=O)([O-])[O-])[C@H](O)[C@@H](O)[C@@H]1O.[Na+].[Na+] [compound 85, Disodium-(6-amino-6-deoxy-α-D-glucopyranosyl) Phosphate]
product formation with dTTP [2]: little or no effect | product formation with UTP ([2]; Phosphate): exception; also recorded: adverse UTP-dependent effect upon yields

CC(=O)N[C@@H]1[C@@H](O)[C@@H](OP(=O)([O-])[O-])O[C@H](CO)[C@H]1O.[Na+].[Na+] [compound 97, Disodium-(3-acetamido-3-deoxy-α-D-glucopyranosyl) Phosphate]
product formation with UTP [2]: adverse UTP-dependent effect upon yields | product formation with dTTP [2]: well-tolerated

N[C@@H]1[C@@H](O)[C@@H](OP(=O)([O-])[O-])O[C@H](CO)[C@H]1O.[Na+].[Na+] [compound 96, Disodium (3-amino-3-deoxy-α-D-glucopyranosyl) Phosphate]
product formation with dTTP [2]: little or no effect

C[C@H]1O[C@H](OP(=O)([O-])[O-])[C@H](O)[C@@H](O)[C@@H]1N.[Na+].[Na+] [compound 102, Disodium-(4-amino-4,6-dideoxy-α-D-glucopyranosyl) Phosphate]
product formation with UTP [2]: greatly diminishes | product formation with dTTP [2]: does not effect

O=P([O-])([O-])O[C@H]1O[C@H](CO)[C@@H](O)[C@@H](O)[C@H]1O.[Na+].[Na+] [compound 38, Disodium α-D-allopyranosyl Phosphate]
activity as Ep substrate with TTP [3]: less activity | acceptance / conversion by wild-type Ep (wild-type Ep): poor conversion

N[C@H]1[C@@H](OP(=O)(O)O)O[C@H](CO)[C@@H](O)[C@@H]1O [compound 107, 2-amino-2-deoxy-α-D-glucopyranosyl phosphate, reference compound]
product formation with dTTP [2]: little or no effect

CC(=O)N[C@H]1[C@H](O)[C@@H](O)[C@@H](OP(=O)([O-])[O-])O[C@@H]1CO.[Na+].[Na+] [compound 92, Disodium-(4-acetamido-4-deoxy-α-D-glucopyranosyl) Phosphate]
product formation with dTTP [2]: less activity

N[C@H]1[C@H](O)[C@@H](O)[C@@H](OP(=O)([O-])[O-])O[C@@H]1CO.[Na+].[Na+] [compound 91, Disodium-(4-amino-4-deoxy-α-D-glucopyranosyl) Phosphate]
product formation with dTTP [2]: little or no effect

O=P(O)(O)O[C@H]1O[C@H](CO)[C@@H](O)[C@H](O)[C@H]1O [compound 2, α-D-glucopyranosyl phosphate]
activity as Ep substrate with TTP [3]: prefers | Km [4]: 300 ± 100 µM | Vmax [4]: 0.03 ± 0.02 mM/min

O=C(O)[C@H]1O[C@H](OP(=O)(O)O)[C@H](O)[C@@H](O)[C@@H]1O [compound 127, α-D-glucopyranuronic acid 1-(dihydrogen phosphate)]
turnover by the mutant pool [1]: turned over | acceptance / conversion by wild-type Ep (wild-type Ep): not accepted | conversion by Trp224His mutant (Ep Trp224His mutant): responsible for converting

CC(=O)N[C@H]1[C@@H](OP(=O)(O)O)O[C@H](CO)[C@@H](O)[C@@H]1O [compound 108, 2-acetamido-2-deoxy-α-D-glucopyranosyl phosphate, reference compound]
product formation with dTTP [2]: well-tolerated | increase in conversion by Thr102Ala mutant (Ep Thr102Ala mutant): 2 fold | acceptance / conversion by wild-type Ep (wild-type Ep): poor conversion
